This test has as its system shark kidney calcium receptor (SKCaR). The experiment in a line: FURA-2 ratio imaging fluorescence assay in HEK cells expressing SKCaR. The test is classed as cell-based, dogfish (Squalus acanthias). The note with it: 10 mM amino acid or AA Mixture; extracellular Ca2+ 0.5–20 mM (FIG. 52). The text has this:
Full length recombinant dogfish (Squalus acanthias) shark kidney calcium receptor ([…] NO.: 17) was expressed in human embryonic kidney […] ligated into the mammalian expression vector […] and transfected into HEK cells using standard techniques. The presence of SKCaR protein in transfected cells was verified by western blotting. Activation of SKCaR and its ability to respond to individual amino acids or mixtures thereof was quantified using a well characterized FURA-2 ratio imaging fluorescence assay where increases in intracellular Ca^2+ produced by SKCaR activation are detected and expressed as % normalized intracellular calcium response to receptor activation. Bai, M., S. et al., J. Biol. Chem., 32:19537-19545 (1996); Conigrave, A, et al., Proc. Nat. Acad. Sci. 97:4814-4819 (2000). […] Baseline extracellular Ca^2+ concentration was 0.5 mM. Aliquots of Ca^2+ were added to produce final extracellular concentrations of 2.5 mM, 5 mM, 7.5 mM, 10 mM and 20 mM Ca^2+ with changes in the fluorescence recorded.

Take `CC[C@H](C)[C@H](N)C(=O)O` [Ile, L-Isoleucine]: the “effect on SKCaR's response to extracellular Ca2+” value is “increase SKCaR's response to a given Ca^2+ concentration”.

Regarding `N[C@@H](Cc1ccccc1)C(=O)O` [Phe, Phenylalanine], the “effect on SKCaR's response to extracellular Ca2+” value is listed as “increase SKCaR's response to a given Ca^2+ concentration”.

These data come from patent publication US7069876B2, “Methods for raising pre-adult anadromous fish” (MariCal, Inc., priority 2000, dated 2006).
